Experimental data: PubChem BioAssay (NCI)
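Briefly, cells in 96-well plates were exposed to five compound concentrations for 48 h, and endpoints were estimated by linear interpolation. At the TGI there is no net growth.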

Legend:
Assay in all cases: NCI-60 cell line screen, 48 h
IGROV1 ovarian = system: IGROV1 ovarian
UO-31 renal = system: UO-31 renal
KM12 colon = system: KM12 colon
UACC-257 melanoma = system: UACC-257 melanoma
OVCAR-8 ovarian = system: OVCAR-8 ovarian
EKVX NSCLC = system: EKVX NSCLC
MDA-MB-231 breast = system: MDA-MB-231 breast
ACHN renal = system: ACHN renal
A549 NSCLC = system: A549 NSCLC
SF-295 CNS = system: SF-295 CNS
SNB-19 CNS = system: SNB-19 CNS
RPMI-8226 leukemia = system: RPMI-8226 leukemia
MDA-MB-435 = system: MDA-MB-435
COLO 205 colon = system: COLO 205 colon
K-562 leukemia = system: K-562 leukemia
U251 CNS = system: U251 CNS
HT29 colon = system: HT29 colon
MDA-N = system: MDA-N
A498 renal = system: A498 renal
MALME-3M melanoma = system: MALME-3M melanoma
DU-145 prostate = system: DU-145 prostate
T-47D breast = system: T-47D breast
HCT-15 colon = system: HCT-15 colon
NCI-H460 lung = system: NCI-H460 lung
OVCAR-5 ovarian = system: OVCAR-5 ovarian
NCI-H522 lung = system: NCI-H522 lung
SR leukemia = system: SR leukemia
SK-MEL-5 melanoma = system: SK-MEL-5 melanoma
SK-MEL-2 melanoma = system: SK-MEL-2 melanoma
SNB-75 CNS = system: SNB-75 CNS
MCF7 breast = system: MCF7 breast
MOLT-4 leukemia = system: MOLT-4 leukemia
TK-10 renal = system: TK-10 renal
CCRF-CEM leukemia = system: CCRF-CEM leukemia
NCI/ADR-RES ovarian = system: NCI/ADR-RES ovarian
CAKI-1 renal = system: CAKI-1 renal
HCC-2998 colon = system: HCC-2998 colon
OVCAR-4 ovarian = system: OVCAR-4 ovarian
HCT-116 colon = system: HCT-116 colon
UACC-62 melanoma = system: UACC-62 melanoma
M14 melanoma = system: M14 melanoma
HS 578T breast = system: HS 578T breast
SW-620 colon = system: SW-620 colon
HOP-62 NSCLC = system: HOP-62 NSCLC
OVCAR-3 ovarian = system: OVCAR-3 ovarian
NCI-H226 lung = system: NCI-H226 lung
LOX IMVI melanoma = system: LOX IMVI melanoma
SK-MEL-28 melanoma = system: SK-MEL-28 melanoma
SN12C renal = system: SN12C renal
PC-3 prostate = system: PC-3 prostate
SF-268 CNS = system: SF-268 CNS
SK-OV-3 ovarian = system: SK-OV-3 ovarian
786-0 renal = system: 786-0 renal
RXF 393 renal = system: RXF 393 renal
BT-549 breast = system: BT-549 breast
HOP-92 NSCLC = system: HOP-92 NSCLC
HL-60(TB) leukemia = system: HL-60(TB) leukemia
SF-539 CNS = system: SF-539 CNS
NCI-H23 lung = system: NCI-H23 lung

In the case of `CCOC(=O)CN=C1Nc2ccccc2C(=O)N2CSCC12` (stereo unspecified), the TGI (IGROV1 ovarian) is reported as over 100 µM, the TGI (UO-31 renal) is reported as over 100 µM and the TGI (KM12 colon) is reported as over 100 µM. The TGI (UACC-257 melanoma) was over 100 µM, the TGI (OVCAR-8 ovarian) was over 100 µM and the TGI (EKVX NSCLC) was over 100 µM. For the same compound, the TGI (MDA-MB-231 breast) was over 100 µM, the TGI (ACHN renal) was over 100 µM and the TGI (A549 NSCLC) was over 100 µM. The TGI (SF-295 CNS) was over 100 µM, the TGI (SNB-19 CNS) was over 100 µM and the TGI (RPMI-8226 leukemia) was over 100 µM. It also gave a TGI (MDA-MB-435) of over 100 µM, a TGI (COLO 205 colon) of over 100 µM and a TGI (K-562 leukemia) of over 100 µM. The TGI (U251 CNS) was over 100 µM, the TGI (HT29 colon) was over 100 µM and the TGI (MDA-N) was over 100 µM. The TGI (A498 renal) was over 100 µM, the TGI (MALME-3M melanoma) was over 100 µM and the TGI (DU-145 prostate) was over 100 µM. For the same compound, the TGI (T-47D breast) was over 100 µM, the TGI (HCT-15 colon) was over 100 µM and the TGI (NCI-H460 lung) was over 100 µM. For the same compound, the TGI (OVCAR-5 ovarian) was over 100 µM, the TGI (NCI-H522 lung) was over 100 µM and the TGI (SR leukemia) was over 100 µM. It also gave a TGI (SK-MEL-5 melanoma) of over 100 µM, a TGI (SK-MEL-2 melanoma) of over 100 µM and a TGI (SNB-75 CNS) of over 100 µM. For the same compound, the TGI (MCF7 breast) was over 100 µM, the TGI (MOLT-4 leukemia) was over 100 µM and the TGI (TK-10 renal) was over 100 µM. For the same compound, the TGI (CCRF-CEM leukemia) was over 100 µM, the TGI (NCI/ADR-RES ovarian) was over 100 µM and the TGI (CAKI-1 renal) was over 100 µM. For the same compound, the TGI (HCC-2998 colon) was over 100 µM, the TGI (OVCAR-4 ovarian) was over 100 µM and the TGI (HCT-116 colon) was over 100 µM. For the same compound, the TGI (UACC-62 melanoma) was over 100 µM, the TGI (M14 melanoma) was over 100 µM and the TGI (HS 578T breast) was over 100 µM. It also gave a TGI (SW-620 colon) of over 100 µM, a TGI (HOP-62 NSCLC) of over 100 µM and a TGI (OVCAR-3 ovarian) of over 100 µM. It also gave a TGI (NCI-H226 lung) of over 100 µM, a TGI (LOX IMVI melanoma) of over 100 µM and a TGI (SK-MEL-28 melanoma) of over 100 µM. For the same compound, the TGI (SN12C renal) was over 100 µM, the TGI (PC-3 prostate) was over 100 µM and the TGI (SF-268 CNS) was over 100 µM. The TGI (SK-OV-3 ovarian) was over 100 µM, the TGI (786-0 renal) was over 100 µM and the TGI (RXF 393 renal) was over 100 µM. The TGI (BT-549 breast) was over 100 µM.
`Cc1ccc(C2(N3CCCC3)OC(C)(C)c3cccc4cccc2c34)cc1` (stereo unspecified) was tested, and the TGI (IGROV1 ovarian) was 29.8 µM, the TGI (UO-31 renal) was 28.3 µM and the TGI (KM12 colon) was over 100 µM. For the same compound, the TGI (UACC-257 melanoma) was 31 µM, the TGI (OVCAR-8 ovarian) was 29.8 µM and the TGI (EKVX NSCLC) was 24 µM. It also gave a TGI (ACHN renal) of 29.9 µM, a TGI (A549 NSCLC) of 24.6 µM and a TGI (SF-295 CNS) of 28 µM. It also gave a TGI (SNB-19 CNS) of 29.8 µM, a TGI (RPMI-8226 leukemia) of 71.9 µM and a TGI (MDA-MB-435) of 28 µM. It also gave a TGI (COLO 205 colon) of 30.3 µM, a TGI (K-562 leukemia) of over 100 µM and a TGI (U251 CNS) of 29.4 µM. For the same compound, the TGI (HT29 colon) was 26.2 µM, the TGI (MDA-N) was 29.9 µM and the TGI (A498 renal) was 30 µM. The TGI (MALME-3M melanoma) was 41.4 µM, the TGI (DU-145 prostate) was 32.8 µM and the TGI (T-47D breast) was 46.9 µM. It also gave a TGI (HCT-15 colon) of 32.2 µM, a TGI (NCI-H460 lung) of 26.3 µM and a TGI (OVCAR-5 ovarian) of 31.4 µM. It also gave a TGI (NCI-H522 lung) of 25.6 µM, a TGI (SR leukemia) of 67.6 µM and a TGI (SK-MEL-5 melanoma) of 28.2 µM. The TGI (SK-MEL-2 melanoma) was 28.2 µM, the TGI (SNB-75 CNS) was 26.3 µM and the TGI (MCF7 breast) was 32.5 µM. The TGI (HOP-92 NSCLC) was 21.2 µM, the TGI (HL-60(TB) leukemia) was over 100 µM and the TGI (MOLT-4 leukemia) was over 100 µM. For the same compound, the TGI (TK-10 renal) was 38.6 µM, the TGI (CCRF-CEM leukemia) was over 100 µM and the TGI (NCI/ADR-RES ovarian) was 30.1 µM. For the same compound, the TGI (CAKI-1 renal) was 36.5 µM, the TGI (OVCAR-4 ovarian) was 27.6 µM and the TGI (HCT-116 colon) was 38.4 µM. The TGI (UACC-62 melanoma) was 27.5 µM, the TGI (M14 melanoma) was 34 µM and the TGI (HS 578T breast) was 31.8 µM. It also gave a TGI (SW-620 colon) of 30.9 µM, a TGI (HOP-62 NSCLC) of 32.3 µM and a TGI (OVCAR-3 ovarian) of 30.3 µM. The TGI (NCI-H226 lung) was 31.8 µM, the TGI (LOX IMVI melanoma) was 29.3 µM and the TGI (SN12C renal) was 32.6 µM. It also gave a TGI (SF-539 CNS) of 32.1 µM, a TGI (PC-3 prostate) of 36.2 µM and a TGI (SF-268 CNS) of 25.8 µM. The TGI (SK-OV-3 ovarian) was 29.3 µM, the TGI (786-0 renal) was 37.6 µM and the TGI (RXF 393 renal) was 27.1 µM. For the same compound, the TGI (NCI-H23 lung) was 29.9 µM and the TGI (BT-549 breast) was 31.3 µM.
